Assay results from US20120156333A1, “STABILIZED BETA CRYPTOXANTHIN-CONTAINING WATER AND THE USE THEREOF” (ARKRAY, INC., priority 2010, published 2012).
Counter-ions that a name gives are not always drawn. Like-named read-outs stand apart in the source and are kept apart here.

Legend:
[1] = degradation in vitamin complex liquid agent, cited from earlier work
[2] = for ln k: converted from log Kobs
Protocol: Specifically, a graph of FIG. 185 on page 95 of the publication was cited. FIG. 1 is an Arrhenius plot of degradation of thiamine hydrochloride in a vitamin complex liquid agent, the Y axis indicates log Kobs (day^−1), and the X axis indicates 1/T (K^1). The stable periods were calculated based on the activation energy for degradation of thiamine hydrochloride in the vitamin complex liquid agent, shown in the graph.
In FIG. 1, the Y axis is indicated by not ln, but log. Therefore log Kobs was converted into ln k.
Then, −Ea/R and ln A were calculated from the ln k and 1/T (K^−1) on the X axis of FIG. 1 based on the Arrhenius equation represented by the formula (1) below.

Structure (SMILES): Cc1ncc(C[n+]2csc(CCO)c2C)c(N)n1 [thiamine hydrochloride]
- Kobs ([1]; T 20.0 ° C.): 0.000 day⁻¹
- log10k ([1]; T 20.0 ° C.): −4.100
- Kobs ([1]; T 22.5 ° C.): 0.000 day⁻¹
- log10k ([1]; T 22.5 ° C.): −3.750
- Kobs ([1]; T 29.1 ° C.): 0.000 day⁻¹
- log10k ([1]; T 29.1 ° C.): −3.400
- Kobs ([1]; T 38.7 ° C.): 0.001 day⁻¹
- log10k ([1]; T 38.7 ° C.): −2.900
- Kobs ([1]; T 50.0 ° C.): 0.005 day⁻¹
- log10k ([1]; T 50.0 ° C.): −2.300
- Kobs ([1]; T 57.6 ° C.): 0.017 day⁻¹
- log10k ([1]; T 57.6 ° C.): −1.780
- Kobs ([1]; T 67.7 ° C.): 0.050 day⁻¹
- log10k ([1]; T 67.7 ° C.): −1.300
- ln k ([2]; T 20.0 ° C.): −9.4406
- ln k ([2]; T 22.5 ° C.): −8.635
- ln k ([2]; T 29.1 ° C.): −7.829
- ln k ([2]; T 38.7 ° C.): −6.6775
- ln k ([2]; T 50.0 ° C.): −5.296
- ln k ([2]; T 57.6 ° C.): −4.0986
- ln k ([2]; T 67.7 ° C.): −2.993
- ln A ([2]; intercept b of Arrhenius equation from ln k and 1/T (K^−1)): 35.139
- −Ea/R ([2]; slope a of Arrhenius equation from ln k and 1/T (K^−1)): −13005
